# Measured values taken from patent publication US4018782A, “2,2-Dimethyl-3R-carboxy-6S- acylamido-1-oxa-4-aza-5R-bicyclo[3,2,0]heptan-7-ones” (Queen's University, priority 1974, dated 1977).
# What was measured:
# S. lutea = assay: antibacterial activity (plate assay) vs S. lutea; type: cell-based
# Experimental: The oxazoline (74 mg., 0.236 mmole) was dissolved in HMPT (1.5 ml.) and the solution was degassed with dry nitrogen for 0.5 hr. Then 0.83 ml. of a 0.612 M solution of t-BuSLi (0.508 mmole), prepared by method A, was added during 0.5 hr. and the mixture was stirred overnight. […] The characteristic peak of the oxazolinecarboxylic acid, 2-benzyl-6-(1'-carboxy-2'-methyl-prop-1'-enyl)-1-oxa-3,6-diaza-4S,5R-bicyclo [3,2,0] hept-2-ene-7-one, were absent from the spectrum.
# [1] = antibacterial activity (organism not stated); type: cell-based; conditions: at levels of 250 mcg./ml.
structure (smiles),measurement,setting,value
CC1(C)O[C@@H]2[C@H](N3C(=O)c4ccccc4C3=O)C(=O)N2[C@H]1C(=O)O [6-phthalimido oxapenicillin],antibacterial activity versus S. lutea relative to phthalimidopenicillin,S. lutea; compared with phthalimidopenicillin,one-tenth the level of phthalimidopenicillin
CC(Oc1ccc(Cl)cc1)C(=O)N[C@@H]1C(=O)N2[C@@H]1OC(C)(C)[C@@H]2C(=O)O (stereo partly drawn),antibacterial activity vs. S. lutea,S. lutea,high antibacterial activity
"CC(C)=C(C(=O)O)N1C(=O)[C@H]2N=C(Cc3ccccc3)O[C@H]21 [oxazoline carboxylic acid, 2-benzyl-6-(1'-carboxy-2'-methylprop-1'-enyl)-1-oxa-3,6-diaza-4S,5R-bicyclo [3.2.0] hept-2-en-7-one]",antibacterial activity at 250 mcg./ml.,[1],inactive
